Reference: the supplement of paper PMC10883282

Experiments:
Assay in all cases: relative viability vs DMSO control (72 h) (fraction); higher = more viable cells
SK-LMS-1 = tested on: SK-LMS-1
Procedure, shortened: (§1)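 Sarcoma cell lines were plated in 384 wells to reach 80–90% confluence, treated after 24 h with 2.5 µl of serially diluted compound and held 72 h at 37 °C, 5% CO2. Relative viability was taken as percent growth from ATPLite readings, averaged over up to triplicate wells. The values were rescaled so that 1 marks full and 0 marks none.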

VA-ES-BJ = tested on: VA-ES-BJ
Procedure, shortened: as §1

KHOS-240S = tested on: KHOS-240S
Procedure, shortened: as §1

A204 = tested on: A204
Procedure, shortened: as §1

MES-SA = tested on: MES-SA
Procedure, shortened: as §1

SW1353 = tested on: SW1353
Procedure, shortened: as §1

SK-ES-1 = tested on: SK-ES-1
Procedure, shortened: as §1

RD = tested on: RD
Procedure, shortened: as §1

SW872 = tested on: SW872
Procedure, shortened: as §1

G401 = tested on: G401
Procedure, shortened: as §1

HS729 = tested on: HS729
Procedure, shortened: as §1

SW982 = tested on: SW982
Procedure, shortened: as §1

N#CC1(c2ccc(NC(=O)c3cccnc3NCc3ccncc3)cc2)CCCC1 [Apatinib]
Details | relative viability
A204, 0.00017 µM | 1.03
A204, 0.00051 µM | 1.03
A204, 0.00152 µM | 1.05
A204, 0.00457 µM | 1.07
A204, 0.01372 µM | 1.02
A204, 0.04115 µM | 1.01
A204, 0.1235 µM | 0.992
A204, 0.3704 µM | 0.811
A204, 1.111 µM | 0.482
A204, 3.333 µM | 0.362
A204, 10 µM | 0.342
G401, 0.00017 µM | 1.006
G401, 0.00051 µM | 1
G401, 0.00152 µM | 0.995
G401, 0.00457 µM | 0.979
G401, 0.01372 µM | 1.01
G401, 0.04115 µM | 0.995
G401, 0.1235 µM | 0.955
G401, 0.3704 µM | 0.927
G401, 1.111 µM | 0.901
G401, 3.333 µM | 0.895
G401, 10 µM | 0.7567
HS729, 0.00017 µM | 1.06
HS729, 0.00051 µM | 1.0262
HS729, 0.00152 µM | 1.066
HS729, 0.00457 µM | 1.04
HS729, 0.01372 µM | 0.997
HS729, 0.04115 µM | 1.03
HS729, 0.1235 µM | 1.04
HS729, 0.3704 µM | 0.963
HS729, 1.111 µM | 0.906
HS729, 3.333 µM | 0.865
HS729, 10 µM | 0.745
KHOS-240S, 0.00017 µM | 1.04
KHOS-240S, 0.00051 µM | 1.06
KHOS-240S, 0.00152 µM | 1.05
KHOS-240S, 0.00457 µM | 1.04
KHOS-240S, 0.01372 µM | 1.04
KHOS-240S, 0.04115 µM | 1.05
KHOS-240S, 0.1235 µM | 1.03
KHOS-240S, 0.3704 µM | 0.991
KHOS-240S, 1.111 µM | 0.97
KHOS-240S, 3.333 µM | 0.956
KHOS-240S, 10 µM | 0.873
MES-SA, 0.00017 µM | 0.978
MES-SA, 0.00051 µM | 0.958
MES-SA, 0.00152 µM | 0.946
MES-SA, 0.00457 µM | 0.9268
MES-SA, 0.01372 µM | 0.929
MES-SA, 0.04115 µM | 0.939
MES-SA, 0.1235 µM | 0.928
MES-SA, 0.3704 µM | 0.938
MES-SA, 1.111 µM | 0.885
MES-SA, 3.333 µM | 0.875
MES-SA, 10 µM | 0.773
RD, 0.00017 µM | 0.992
RD, 0.00051 µM | 1.02
RD, 0.00152 µM | 1.03
RD, 0.00457 µM | 1.01
RD, 0.01372 µM | 1.02
RD, 0.04115 µM | 1.01
RD, 0.1235 µM | 1.02
RD, 0.3704 µM | 1.01
RD, 1.111 µM | 1.05
RD, 3.333 µM | 1.09
RD, 10 µM | 1.12
SK-ES-1, 0.00017 µM | 0.968
SK-ES-1, 0.00051 µM | 0.986
SK-ES-1, 0.00152 µM | 0.95
SK-ES-1, 0.00457 µM | 0.964
SK-ES-1, 0.01372 µM | 1
SK-ES-1, 0.04115 µM | 0.991
SK-ES-1, 0.1235 µM | 0.999
SK-ES-1, 0.3704 µM | 1.01
SK-ES-1, 1.111 µM | 0.978
SK-ES-1, 3.333 µM | 0.936
SK-ES-1, 10 µM | 0.845
SK-LMS-1, 0.00017 µM | 1.06
SK-LMS-1, 0.00051 µM | 1.06
SK-LMS-1, 0.00152 µM | 1.07
SK-LMS-1, 0.00457 µM | 1.05
SK-LMS-1, 0.01372 µM | 1.07
SK-LMS-1, 0.04115 µM | 1.08
SK-LMS-1, 0.1235 µM | 1.01
SK-LMS-1, 0.3704 µM | 1.05
SK-LMS-1, 1.111 µM | 1.02
SK-LMS-1, 3.333 µM | 1
SK-LMS-1, 10 µM | 0.833
SW872, 0.00017 µM | 1.06
SW872, 0.00051 µM | 1.07
SW872, 0.00152 µM | 1.05
SW872, 0.00457 µM | 1.05
SW872, 0.01372 µM | 1.08
SW872, 0.04115 µM | 1.08
SW872, 0.1235 µM | 1.05
SW872, 0.3704 µM | 1.02
SW872, 1.111 µM | 1.02
SW872, 3.333 µM | 1.03
SW872, 10 µM | 0.972
SW982, 0.00017 µM | 0.96
SW982, 0.00051 µM | 0.978
SW982, 0.00152 µM | 0.994
SW982, 0.00457 µM | 0.9695
SW982, 0.01372 µM | 0.99
SW982, 0.04115 µM | 1.009
SW982, 0.1235 µM | 1
SW982, 0.3704 µM | 0.958
SW982, 1.111 µM | 0.979
SW982, 3.333 µM | 0.975
SW982, 10 µM | 0.999
SW1353, 0.00017 µM | 1.03
SW1353, 0.00051 µM | 1.005
SW1353, 0.00152 µM | 0.988
SW1353, 0.00457 µM | 1.01
SW1353, 0.01372 µM | 0.9811
SW1353, 0.04115 µM | 0.992
SW1353, 0.1235 µM | 0.981
SW1353, 0.3704 µM | 0.948
SW1353, 1.111 µM | 0.935
SW1353, 3.333 µM | 0.994
SW1353, 10 µM | 0.928
VA-ES-BJ, 0.00017 µM | 1.04
VA-ES-BJ, 0.00051 µM | 1.08
VA-ES-BJ, 0.00152 µM | 1.05
VA-ES-BJ, 0.00457 µM | 1.08
VA-ES-BJ, 0.01372 µM | 1.06
VA-ES-BJ, 0.04115 µM | 1.07
VA-ES-BJ, 0.1235 µM | 1.067
VA-ES-BJ, 0.3704 µM | 1.07
VA-ES-BJ, 1.111 µM | 1.11
VA-ES-BJ, 3.333 µM | 1.14
VA-ES-BJ, 10 µM | 1.17
